# Measured values: patent US8541588B2, “Sulfonamide derivatives” (Pfizer Limited, priority 2009, dated 2013)
# Target: T1, Nav1.7 (or SCN9A) channel; HEK cells stably transfected with hSCN9A (Homo sapiens, UniProt Q15858)
# T1 construct: expressed in transfected cells
# Assay: Nav1.7 block, PatchXpress 7000 automated whole-cell voltage clamp, estimated IC50 (EIC50)
# Type: cell-based
# Conditions: estimated IC50; hSCN9A HEK cells, PatchXpress platform; Examples 815-1040
# T1 sequence (Q15858 whole entry): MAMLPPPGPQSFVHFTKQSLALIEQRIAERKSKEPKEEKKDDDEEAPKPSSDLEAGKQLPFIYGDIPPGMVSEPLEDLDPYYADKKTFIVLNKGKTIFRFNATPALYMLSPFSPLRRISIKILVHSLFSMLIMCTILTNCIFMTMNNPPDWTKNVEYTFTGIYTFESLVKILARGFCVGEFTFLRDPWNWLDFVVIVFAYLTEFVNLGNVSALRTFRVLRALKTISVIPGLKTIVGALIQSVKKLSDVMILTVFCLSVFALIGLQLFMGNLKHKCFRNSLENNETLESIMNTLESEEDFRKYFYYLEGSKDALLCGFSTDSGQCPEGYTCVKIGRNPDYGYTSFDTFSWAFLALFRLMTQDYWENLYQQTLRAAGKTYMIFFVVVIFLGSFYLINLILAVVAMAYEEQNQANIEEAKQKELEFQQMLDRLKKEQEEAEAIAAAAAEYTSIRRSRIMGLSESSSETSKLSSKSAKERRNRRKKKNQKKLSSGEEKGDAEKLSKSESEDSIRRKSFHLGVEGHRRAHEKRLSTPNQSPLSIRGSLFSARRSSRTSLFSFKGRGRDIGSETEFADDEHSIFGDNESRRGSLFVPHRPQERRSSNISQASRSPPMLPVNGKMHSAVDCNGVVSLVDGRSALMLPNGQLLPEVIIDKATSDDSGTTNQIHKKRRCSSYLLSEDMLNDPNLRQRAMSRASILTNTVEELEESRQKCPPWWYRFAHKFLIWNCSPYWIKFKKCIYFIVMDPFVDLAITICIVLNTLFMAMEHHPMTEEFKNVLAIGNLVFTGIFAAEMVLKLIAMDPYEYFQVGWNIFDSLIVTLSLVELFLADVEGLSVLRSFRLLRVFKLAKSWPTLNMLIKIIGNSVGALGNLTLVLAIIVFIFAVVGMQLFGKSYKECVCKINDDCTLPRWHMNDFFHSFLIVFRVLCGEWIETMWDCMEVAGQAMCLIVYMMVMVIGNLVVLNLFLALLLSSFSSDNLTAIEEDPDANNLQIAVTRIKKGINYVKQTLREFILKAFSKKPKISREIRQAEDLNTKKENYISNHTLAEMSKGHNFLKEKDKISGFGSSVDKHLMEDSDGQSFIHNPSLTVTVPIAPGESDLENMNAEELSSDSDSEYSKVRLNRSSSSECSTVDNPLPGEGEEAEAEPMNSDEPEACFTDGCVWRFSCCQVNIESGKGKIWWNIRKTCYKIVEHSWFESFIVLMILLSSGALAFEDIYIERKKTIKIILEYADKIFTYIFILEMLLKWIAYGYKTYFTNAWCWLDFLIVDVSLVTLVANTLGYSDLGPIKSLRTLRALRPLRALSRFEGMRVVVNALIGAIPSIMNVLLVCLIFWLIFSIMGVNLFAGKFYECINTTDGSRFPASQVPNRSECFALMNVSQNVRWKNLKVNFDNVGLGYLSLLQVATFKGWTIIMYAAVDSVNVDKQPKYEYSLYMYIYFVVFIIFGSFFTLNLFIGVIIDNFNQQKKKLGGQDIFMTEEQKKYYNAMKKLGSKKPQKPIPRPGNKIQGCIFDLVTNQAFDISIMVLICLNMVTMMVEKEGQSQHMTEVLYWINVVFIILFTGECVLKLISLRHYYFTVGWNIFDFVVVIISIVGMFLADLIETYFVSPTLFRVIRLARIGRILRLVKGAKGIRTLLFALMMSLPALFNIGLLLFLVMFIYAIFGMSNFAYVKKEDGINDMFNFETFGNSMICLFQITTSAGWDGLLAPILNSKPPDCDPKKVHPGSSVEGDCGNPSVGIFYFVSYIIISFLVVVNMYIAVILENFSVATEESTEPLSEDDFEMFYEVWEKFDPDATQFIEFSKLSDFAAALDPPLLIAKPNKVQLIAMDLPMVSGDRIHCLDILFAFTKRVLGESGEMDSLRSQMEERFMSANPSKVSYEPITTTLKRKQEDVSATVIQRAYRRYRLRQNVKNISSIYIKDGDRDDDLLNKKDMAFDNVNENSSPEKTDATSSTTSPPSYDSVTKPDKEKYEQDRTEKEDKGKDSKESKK
row,Structure (SMILES),IC50
1,"O=S(=O)(Nc1ncns1)c1ccc(Oc2ccc(Cl)cc2C2CCOCC2)c(F)c1 [Example 825, 4-[4-chloro-2-(tetrahydro-2H-pyran-4-yl)phenoxy]-3-fluoro-N-1,2,4-thiadiazol-5-ylbenzenesulfonamide]",190 nM
2,"N#Cc1cc(S(=O)(=O)Nc2ncns2)ccc1Oc1ccc(F)cc1-c1cc(N)n[nH]1 [Example 826, 4-[2-(3-amino-1H-pyrazol-5-yl)-4-fluorophenoxy]-3-cyano-N-1,2,4-thiadiazol-5-ylbenzenesulfonamide]",300 nM
3,"O=S(=O)(Nc1ncns1)c1ccc(Oc2ccc(OC(F)(F)F)cc2-c2ccn[nH]2)c(F)c1 [Example 829, 3-fluoro-4-[2-(1H-pyrazol-5-yl)-4-(trifluoromethoxy)phenoxy]-N-1,2,4-thiadiazol-5-ylbenzenesulfonamide]",34 nM
4,"Nc1cccc(-c2cc(OC(F)(F)F)ccc2Oc2cc(F)c(S(=O)(=O)Nc3ncns3)cc2F)n1 [Example 830, 4-[2-(6-aminopyridin-2-yl)-4-(trifluoromethoxy)phenoxy]-2,5-difluoro-N-1,2,4-thiadiazol-5-ylbenzenesulfonamide]",23 nM
5,"N#Cc1cc(S(=O)(=O)Nc2nncs2)ccc1Oc1ccc(Cl)cc1-c1ccnnc1 [Example 832, 4-(4-chloro-2-pyridazin-4-ylphenoxy)-3-cyano-N-1,3,4-thiadiazol-2-ylbenzenesulfonamide]",420 nM
6,"N#Cc1cc(S(=O)(=O)Nc2cscn2)ccc1Oc1ccc(Cl)cc1-c1ccnc(N2CCNCC2)c1 [Example 834, 4-[4-chloro-2-(2-piperazin-1-ylpyridin-4-yl)phenoxy]-3-cyano-N-1,3-thiazol-4-ylbenzenesulfonamide]",3.9 nM
7,"N#Cc1cc(S(=O)(=O)Nc2nncs2)ccc1Oc1ccc(Cl)cc1-c1ccnc(N2CCNCC2)c1 [Example 835, 4-[4-chloro-2-(2-piperazin-1-ylpyridin-4-yl)phenoxy]-3-cyano-N-1,3,4-thiadiazol-2-ylbenzenesulfonamide]",2.1 nM
8,"N#Cc1cc(S(=O)(=O)Nc2ncns2)ccc1Oc1ccc(Cl)cc1C1CCOCC1 [Example 836, 4-[4-chloro-2-(tetrahydro-2H-pyran-4-yl)phenoxy]-3-cyano-N-1,2,4-thiadiazol-5-ylbenzenesulfonamide]",40 nM
9,"O=S(=O)(Nc1ncns1)c1cc(F)c(Oc2ccc(OC(F)F)cc2-c2cn[nH]c2)cc1F [Example 837, 4-[4-(difluoromethoxy)-2-(1H-pyrazol-4-yl)phenoxy]-2,5-difluoro-N-1,2,4-thiadiazol-5-ylbenzenesulfonamide]",5.8 nM
10,"N#Cc1cc(S(=O)(=O)Nc2nncs2)ccc1Oc1ccc(Cl)cc1-c1cn[nH]c1 [Example 839, 4-[4-chloro-2-(1H-pyrazol-4-yl)phenoxy]-3-cyano-N-1,3,4-thiadiazol-2-ylbenzenesulfonamide]",130 nM
11,"Nc1cc(-c2cc(F)ccc2Oc2cc(F)c(S(=O)(=O)Nc3ncns3)cc2Cl)[nH]n1 [Example 840, 4-[2-(3-amino-1H-pyrazol-5-yl)-4-fluorophenoxy]-5-chloro-2-fluoro-N-1,2,4-thiadiazol-5-ylbenzenesulfonamide]",52 nM
12,"O=S(=O)(Nc1cscn1)c1cc(F)c(Oc2ccc(C(F)(F)F)cc2-c2ccnn2C2CNC2)cc1F [Example 841, 4-[2-(1-azetidin-3-yl-1H-pyrazol-5-yl)-4-(trifluoromethyl)phenoxy]-2,5-difluoro-N-1,3-thiazol-4-ylbenzenesulfonamide]",11 nM
13,"N#Cc1cc(S(=O)(=O)Nc2ncns2)ccc1Oc1ccc(F)cc1C1CCOCC1 [Example 842, 3-cyano-4-[4-fluoro-2-(tetrahydro-2H-pyran-4-yl)phenoxy]-N-1,2,4-thiadiazol-5-ylbenzenesulfonamide]",96 nM

# More lines, now with the values ahead:
row,IC50,Structure (SMILES)
1,300 nM,"Cc1nnc(NS(=O)(=O)c2cc(Cl)c(Oc3ccc(Cl)cc3-c3ccnn3C)cc2F)s1 [Example 817, 5-chloro-4-[4-chloro-2-(1-methyl-1H-pyrazol-5-yl)phenoxy]-2-fluoro-N-(5-methyl-1,3,4-thiadiazol-2-yl)benzenesulfonamide]"
2,320 nM,"N#Cc1cc(S(=O)(=O)Nc2nncs2)ccc1Oc1ccc(Cl)cc1-c1ccnc(N)c1 [Example 818, 4-[2-(2-aminopyridin-4-yl)-4-chlorophenoxy]-3-cyano-N-1,3,4-thiadiazol-2-ylbenzenesulfonamide]"
3,2400 nM,"COCCn1ccc(-c2cc(Cl)ccc2Oc2cc(F)c(S(=O)(=O)Nc3nncs3)cc2Cl)n1 [Example 819, 5-chloro-4-{4-chloro-2-[1-(2-methoxyethyl)-1H-pyrazol-3-yl]phenoxy}-2-fluoro-N-1,3,4-thiadiazol-2-ylbenzenesulfonamide]"
4,230 nM,"Nc1cc(-c2cc(Cl)ccc2Oc2cc(F)c(S(=O)(=O)Nc3nncs3)cc2F)ccn1 [Example 820, 4-[2-(2-aminopyridin-4-yl)-4-chlorophenoxy]-2,5-difluoro-N-1,3,4-thiadiazol-2-ylbenzenesulfonamide]"
5,100 nM,"O=S(=O)(Nc1nncs1)c1cc(F)c(Oc2ccc(Cl)cc2-c2cn[nH]c2)cc1F [Example 821, 4-[4-chloro-2-(1H-pyrazol-4-yl)phenoxy]-2,5-difluoro-N-1,3,4-thiadiazol-2-ylbenzenesulfonamide]"
6,7.4 nM,"O=C(c1cccc(-c2cc(Cl)ccc2Oc2cc(F)c(S(=O)(=O)Nc3ncns3)cc2Cl)c1)N1CCC1 [Example 823, 4-{[3′-(azetidin-1-ylcarbonyl)-5-chlorobiphenyl-2-yl]oxy}-5-chloro-2-fluoro-N-1,2,4-thiadiazol-5-ylbenzenesulfonamide]"
7,4.7 nM,"O=C(c1cccc(-c2cc(Cl)ccc2Oc2cc(F)c(S(=O)(=O)Nc3ncns3)cc2Cl)c1)N1CC(O)C1 [Example 824, 5-chloro-4-({5-chloro-3′-[(3-hydroxyazetidin-1-yl)carbonyl]biphenyl-2-yl}oxy)-2-fluoro-N-1,2,4-thiadiazol-5-ylbenzenesulfonamide]"
8,63 nM,"O=S(=O)(Nc1nncs1)c1cc(Cl)c(Oc2ccc(Cl)cc2-c2cccc(CN3CCC3)n2)cc1F [Example 831, 4-{2-[6-(azetidin-1-ylmethyl)pyridin-2-yl]-4-chlorophenoxy}-5-chloro-2-fluoro-N-1,3,4-thiadiazol-2-ylbenzenesulfonamide]"
9,5.9 nM,"O=S(=O)(Nc1nncs1)c1cc(F)c(Oc2ccc(Cl)cc2-c2ccnc(N3CCNCC3)c2)cc1F [Example 833, 4-[4-chloro-2-(2-piperazin-1-ylpyridin-4-yl)phenoxy]-2,5-difluoro-N-1,3,4-thiadiazol-2-ylbenzenesulfonamide]"
10,1.8 nM,"O=S(=O)(Nc1ncns1)c1cc(F)c(Oc2ccc(Cl)cc2-c2ccnc(CN3CCC3)c2)cc1F [Example 838, 4-{2-[2-(azetidin-1-ylmethyl)pyridin-4-yl]-4-chlorophenoxy}-2,5-difluoro-N-1,2,4-thiadiazol-5-ylbenzenesulfonamide]"
11,34 nM,"O=S(=O)(Nc1nncs1)c1cc(Cl)c(Oc2ccc(Cl)cc2-c2ccnnc2)cc1F [Example 843, 5-chloro-4-(4-chloro-2-pyridazin-4-ylphenoxy)-2-fluoro-N-1,3,4-thiadiazol-2-ylbenzenesulfonamide]"
12,41 nM,"O=S(=O)(Nc1cscn1)c1cc(Cl)c(Oc2ccc(Cl)cc2-c2ccnnc2)cc1F [Example 845, 5-chloro-4-(4-chloro-2-pyridazin-4-ylphenoxy)-2-fluoro-N-1,3-thiazol-4-ylbenzenesulfonamide]"
